# In ChEMBL document CHEMBL4350965 (J Med Chem, 2019):
# What was measured:
# PI3K p110 beta/p85 alpha [1] = target: T1, PI3K p110 beta/p85 alpha (Homo sapiens, UniProt P42338); test: Inhibition of N-terminal His6-tagged recombinant full length human p110beta/untagged recombinant full length human p85alpha expressed in baculovirus infected Sf21 insect cells at 1 uM using PIP2 as substrate measured after 80 mins by transcreener fluorescence polarization assay relative to control
# [2] = Stability in rat liver microsomes assessed as parent compound remaining at 1 uM measured after 30 mins in presence of NADPH generating system
# [3] = Stability in human liver microsomes assessed as parent compound remaining at 1 uM measured after 30 mins in presence of NADPH generating system
# [4] = Inhibition of PI3Kgamma in […] RAW264.7 cells assessed as reduction in C5a-stimulated AKT phosphorylation at Ser473 residue preincubated for 30 mins followed by C5a-stimulation and measured after 5 mins; type: cell-based
# PI3K p110 beta/p85 alpha [5] = target: T1, PI3K p110 beta/p85 alpha; test: Inhibition of N-terminal His6-tagged recombinant full length human p110beta/untagged recombinant full length human p85alpha expressed in baculovirus infected Sf21 insect cells using PIP2 as substrate measured after 80 mins by transcreener fluorescence polarization assay
# [6] = target: T2, Phosphatidylinositol 4,5-bisphosphate 3-kinase catalytic subunit delta isoform (Homo sapiens, UniProt O00329); test: Inhibition of PI3Kdelta in human whole blood assessed as reduction in anti-IgM-stimulated CD69 expression on B-cells preincubated for 60 mins followed by anti-IgM stimulation and measured after overnight incubation by flow cytometry; type: tissue-based
# T2 sequence (O00329 whole entry): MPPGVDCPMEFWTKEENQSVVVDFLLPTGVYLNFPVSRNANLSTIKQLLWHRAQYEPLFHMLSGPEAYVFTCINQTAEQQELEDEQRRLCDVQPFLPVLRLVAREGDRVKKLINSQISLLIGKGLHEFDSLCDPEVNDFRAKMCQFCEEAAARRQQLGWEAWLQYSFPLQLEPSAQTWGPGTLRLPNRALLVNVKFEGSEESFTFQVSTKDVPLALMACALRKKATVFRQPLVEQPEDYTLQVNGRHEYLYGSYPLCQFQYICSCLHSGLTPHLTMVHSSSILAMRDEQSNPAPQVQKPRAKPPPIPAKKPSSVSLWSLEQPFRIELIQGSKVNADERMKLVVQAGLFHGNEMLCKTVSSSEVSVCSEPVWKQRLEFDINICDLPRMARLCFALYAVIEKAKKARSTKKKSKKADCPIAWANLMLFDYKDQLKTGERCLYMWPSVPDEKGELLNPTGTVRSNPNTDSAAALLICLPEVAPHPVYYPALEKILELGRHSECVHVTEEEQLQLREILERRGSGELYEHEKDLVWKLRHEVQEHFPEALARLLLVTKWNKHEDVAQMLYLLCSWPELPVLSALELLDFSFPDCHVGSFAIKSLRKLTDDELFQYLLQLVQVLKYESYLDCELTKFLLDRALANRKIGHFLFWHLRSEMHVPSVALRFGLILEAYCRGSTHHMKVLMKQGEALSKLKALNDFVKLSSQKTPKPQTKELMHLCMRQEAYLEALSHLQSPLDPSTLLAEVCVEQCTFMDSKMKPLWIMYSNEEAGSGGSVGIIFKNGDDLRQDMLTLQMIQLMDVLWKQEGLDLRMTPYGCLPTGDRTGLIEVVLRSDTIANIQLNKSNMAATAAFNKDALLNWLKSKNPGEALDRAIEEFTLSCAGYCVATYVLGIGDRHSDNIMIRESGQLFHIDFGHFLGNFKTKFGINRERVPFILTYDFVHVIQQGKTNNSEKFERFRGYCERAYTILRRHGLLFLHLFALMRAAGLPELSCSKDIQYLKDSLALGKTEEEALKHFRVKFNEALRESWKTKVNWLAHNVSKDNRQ
# [7] = Inhibition of PI3Kdelta in rat whole blood assessed as reduction in anti-IgD-stimulated CD86 expression on B-cells preincubated for 60 mins followed by anti-IgD stimulation and measured after overnight incubation by flow cytometry; type: tissue-based
# [8] = target: T2, Phosphatidylinositol 4,5-bisphosphate 3-kinase catalytic subunit delta isoform; test: Inhibition of PI3Kdelta in human whole blood assessed as reduction in fMLP-stimulated CD63 expression in basophils preincubated for 30 mins followed by fMLP stimulation; type: tissue-based
# Rattus norvegicus [9] = test: Ex vivo inhibition of anti-IgD-induced B cell activation in Wistar rat assessed as CD86 expression at 1 mg/kg, po pretreated for 2 hrs followed by anti-IgD stimulation and measured after overnight incubation by flow cytometry relative to control; type: functional
# Rattus norvegicus [10] = test: Antiarthritic activity in po dosed type2 collagen-induced Wistar rat arthritis model assessed as reduction in hind paw volume administered twice daily for 7 days and measured daily during compound dosing by plethysmometry; type: functional; details: 168 h
# [11] = AUC in Beagle dog at 1 mg/kg, iv by LC-MS/MS analysis; type: ADME, organism-based, Canis lupus familiaris; details: in vivo
# [12] = Volume of distribution at steady state in Beagle dog at 1 mg/kg, iv by LC-MS/MS analysis; type: ADME, organism-based, Canis lupus familiaris; details: in vivo, read-out: Vdss
# [13] = Half life in Beagle dog at 1 mg/kg, iv by LC-MS/MS analysis; type: ADME, organism-based, Canis lupus familiaris; details: in vivo
# [14] = Clearance in Beagle dog at 1 mg/kg, iv by LC-MS/MS analysis; type: ADME, organism-based, Canis lupus familiaris; details: in vivo
# Rattus norvegicus [15] = test: Inhibition of KC/GRO-induced neutrophil migration in Wistar rat air pouch model at 10 mg/kg, po pretreated for 0.5 hrs followed by KC/GRO-stimulation and measured after 4 hrs by flow cytometry relative to control; type: functional
# [16] = Cmax in Beagle dog at 5 mg/kg, po by LC-MS/MS analysis; type: ADME, organism-based, Canis lupus familiaris; parameters: dose 5 mg/kg, route oral; details: in vivo
# [17] = AUC in Beagle dog at 5 mg/kg, po by LC-MS/MS analysis; type: ADME, organism-based, Canis lupus familiaris; details: in vivo
# [18] = Oral bioavailability in Sprague-Dawley rat at 10 mg/kg by LC-MS/MS analysis; type: ADME, organism-based; details: in vivo
# [19] = Cmax in Sprague-Dawley rat at 10 mg/kg, po by LC-MS/MS analysis; type: ADME, organism-based; parameters: dose 10 mg/kg, route oral; details: in vivo
# [20] = AUC in Sprague-Dawley rat at 10 mg/kg, po by LC-MS/MS analysis; type: ADME, organism-based; details: in vivo
# [21] = Clearance in Sprague-Dawley rat at 2.5 mg/kg, iv by LC-MS/MS analysis; type: ADME, organism-based; details: in vivo
# [22] = Half life in Sprague-Dawley rat at 2.5 mg/kg, iv by LC-MS/MS analysis; type: ADME, organism-based; details: in vivo
# [23] = AUC in Sprague-Dawley rat at 2.5 mg/kg, iv by LC-MS/MS analysis; type: ADME, organism-based; details: in vivo
# [24] = Oral bioavailability in Beagle dog at 5 mg/kg by LC-MS/MS analysis; type: ADME, organism-based, Canis lupus familiaris; details: in vivo
# [25] = target: PI3-kinase p110-delta/p85-alpha (Homo sapiens, UniProt O00329); test: biochemical
# Description: Inhibition of N-terminal His6-tagged recombinant full length human p110delta/untagged recombinant full length human p85alpha expressed in baculovirus infected Sf21 insect cells using PIP2 as substrate measured after 80 mins by transcreener fluorescence polarization assay
# [26] = target: PI3-kinase p110-alpha/p85-alpha (Homo sapiens, UniProt P42336); test: Inhibition of recombinant human full-length N-terminal His-tagged PI3K p110alpha/p85alpha expressed in baculovirus expression system at 1 uM using PIP2 as substrate measured after 80 mins by transcreener fluorescence polarization assay relative to control
# [27] = target: T2, Phosphatidylinositol 4,5-bisphosphate 3-kinase catalytic subunit delta isoform; test: Inhibition of PI3Kdelta in human Ramos cells assessed as reduction in antihuman IgM-stimulated AKT phosphorylation at Ser473 residue preincubated for 60 mins followed by antihuman IgM stimulation and measured after 15 mins; type: cell-based
# T1 sequence (P27986 whole entry): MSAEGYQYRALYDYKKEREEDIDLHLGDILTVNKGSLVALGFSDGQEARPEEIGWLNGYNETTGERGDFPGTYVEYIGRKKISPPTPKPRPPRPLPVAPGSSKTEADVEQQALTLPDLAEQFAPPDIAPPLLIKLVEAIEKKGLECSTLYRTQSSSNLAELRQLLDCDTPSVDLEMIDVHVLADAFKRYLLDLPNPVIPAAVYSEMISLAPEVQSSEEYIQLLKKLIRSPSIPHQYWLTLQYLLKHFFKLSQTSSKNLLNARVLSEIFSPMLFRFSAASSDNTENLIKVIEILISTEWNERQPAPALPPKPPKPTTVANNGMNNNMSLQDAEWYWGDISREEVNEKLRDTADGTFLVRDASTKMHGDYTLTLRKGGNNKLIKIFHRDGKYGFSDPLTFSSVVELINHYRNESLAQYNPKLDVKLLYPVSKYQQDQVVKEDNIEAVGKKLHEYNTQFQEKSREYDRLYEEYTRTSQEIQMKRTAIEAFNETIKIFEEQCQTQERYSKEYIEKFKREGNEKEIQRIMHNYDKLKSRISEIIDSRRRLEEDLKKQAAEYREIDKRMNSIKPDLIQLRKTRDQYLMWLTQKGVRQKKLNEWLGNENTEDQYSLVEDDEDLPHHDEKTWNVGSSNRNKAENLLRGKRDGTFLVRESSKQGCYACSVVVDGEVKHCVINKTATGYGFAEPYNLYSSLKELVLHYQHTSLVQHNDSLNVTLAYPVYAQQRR
# T1 sequence (P42338 whole entry): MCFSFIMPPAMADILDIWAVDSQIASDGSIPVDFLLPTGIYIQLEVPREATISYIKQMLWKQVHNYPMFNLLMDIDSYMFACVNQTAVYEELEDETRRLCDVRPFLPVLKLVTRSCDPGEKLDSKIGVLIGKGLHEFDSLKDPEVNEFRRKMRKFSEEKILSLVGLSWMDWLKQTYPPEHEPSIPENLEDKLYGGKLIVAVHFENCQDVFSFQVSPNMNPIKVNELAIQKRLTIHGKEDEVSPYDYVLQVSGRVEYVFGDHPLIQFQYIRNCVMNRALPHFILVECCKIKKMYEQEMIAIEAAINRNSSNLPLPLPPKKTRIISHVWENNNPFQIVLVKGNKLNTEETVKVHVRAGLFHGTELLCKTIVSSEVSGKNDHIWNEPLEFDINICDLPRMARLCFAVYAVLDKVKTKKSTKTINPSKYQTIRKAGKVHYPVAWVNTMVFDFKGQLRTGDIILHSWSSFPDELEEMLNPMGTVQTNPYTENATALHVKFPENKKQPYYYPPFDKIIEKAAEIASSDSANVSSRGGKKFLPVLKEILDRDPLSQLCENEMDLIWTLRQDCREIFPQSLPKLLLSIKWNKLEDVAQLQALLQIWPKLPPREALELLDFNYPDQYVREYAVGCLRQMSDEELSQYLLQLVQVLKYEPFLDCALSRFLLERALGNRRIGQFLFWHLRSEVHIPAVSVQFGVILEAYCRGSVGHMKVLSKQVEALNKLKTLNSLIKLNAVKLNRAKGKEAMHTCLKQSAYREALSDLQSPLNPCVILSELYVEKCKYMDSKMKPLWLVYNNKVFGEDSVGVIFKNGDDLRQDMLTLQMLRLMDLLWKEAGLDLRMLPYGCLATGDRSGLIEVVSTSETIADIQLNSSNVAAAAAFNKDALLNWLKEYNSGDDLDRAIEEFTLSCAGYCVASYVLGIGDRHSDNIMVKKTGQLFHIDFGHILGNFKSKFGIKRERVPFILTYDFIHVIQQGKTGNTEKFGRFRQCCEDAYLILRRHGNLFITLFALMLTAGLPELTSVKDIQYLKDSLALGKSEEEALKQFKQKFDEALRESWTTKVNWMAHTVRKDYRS
# PI3-kinase p110-alpha/p85-alpha, sequence (P27986 whole entry, canonical isoform): as the sequence (P27986 whole entry) above
# PI3-kinase p110-alpha/p85-alpha, sequence (P42336 whole entry, canonical isoform): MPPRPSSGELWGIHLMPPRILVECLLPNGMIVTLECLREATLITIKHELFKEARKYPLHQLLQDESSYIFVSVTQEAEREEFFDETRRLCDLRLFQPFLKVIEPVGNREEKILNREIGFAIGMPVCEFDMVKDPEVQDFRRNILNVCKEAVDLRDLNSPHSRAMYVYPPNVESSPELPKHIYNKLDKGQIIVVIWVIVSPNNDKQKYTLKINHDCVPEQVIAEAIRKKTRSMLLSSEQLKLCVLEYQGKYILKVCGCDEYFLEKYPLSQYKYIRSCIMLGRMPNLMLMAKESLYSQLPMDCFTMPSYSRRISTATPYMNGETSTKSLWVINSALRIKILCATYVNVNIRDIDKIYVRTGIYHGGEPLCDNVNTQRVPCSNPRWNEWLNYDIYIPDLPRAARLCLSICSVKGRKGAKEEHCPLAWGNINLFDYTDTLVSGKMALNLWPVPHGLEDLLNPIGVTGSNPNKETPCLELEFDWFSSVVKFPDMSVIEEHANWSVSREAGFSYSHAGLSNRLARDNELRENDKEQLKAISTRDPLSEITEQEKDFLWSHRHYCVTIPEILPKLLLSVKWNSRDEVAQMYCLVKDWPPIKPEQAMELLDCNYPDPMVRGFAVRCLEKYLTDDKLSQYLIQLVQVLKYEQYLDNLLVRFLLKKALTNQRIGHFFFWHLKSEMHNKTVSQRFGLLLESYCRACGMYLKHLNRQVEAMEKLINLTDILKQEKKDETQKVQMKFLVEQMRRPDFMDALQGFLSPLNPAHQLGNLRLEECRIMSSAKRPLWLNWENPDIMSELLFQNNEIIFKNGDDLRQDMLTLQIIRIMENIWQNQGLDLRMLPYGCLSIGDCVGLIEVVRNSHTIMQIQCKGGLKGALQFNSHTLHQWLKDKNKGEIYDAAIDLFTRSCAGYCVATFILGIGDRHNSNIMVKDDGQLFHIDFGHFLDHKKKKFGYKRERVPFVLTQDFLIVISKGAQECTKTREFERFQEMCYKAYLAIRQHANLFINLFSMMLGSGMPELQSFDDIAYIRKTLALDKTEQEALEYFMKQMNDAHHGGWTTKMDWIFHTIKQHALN
# PI3-kinase p110-delta/p85-alpha, sequence (P27986 whole entry, one chain of several): as the sequence (P27986 whole entry) above
smiles,measurement,setting,value
O=c1c2cccn2nc([C@@H]2CCCN2c2ncnc3[nH]cnc23)n1-c1ccccc1,inhibition at 1 µM,PI3K p110 beta/p85 alpha [1],17.4%
same,"remaining at 0.5 h, 1 µM",[2],44.3%
CC(=O)c1c[nH]c2ncnc(N3CCC[C@H]3c3nn4ccc(Cl)c4c(=O)n3-c3ccccc3)c12,"remaining at 0.5 h, 1 µM",[2],41.4%
same,"remaining at 0.5 h, 1 µM",[3],17.9%
CC[C@H](Nc1ncnc2[nH]cnc12)c1nc2cccc(F)c2c(=O)n1-c1ccccc1 [IDELALISIB],IC50,[4],337 nM
CC(=O)c1cnc(N)nc1N1CC[C@H]1c1nn2ccc(Cl)c2c(=O)n1-c1ccccc1,IC50,PI3K p110 beta/p85 alpha [5],590 nM
same,IC50,[6],63 nM
same,IC50,[7],44 nM
same,IC50,[8],337 nM
same,inhibition in vivo at 1 mg/kg,Rattus norvegicus [9],88.3%
same,ED50,Rattus norvegicus [10],0.25 mg/kg
same,AUC,[11],3260 ng·h/mL
same,Vd,[12],1.7 L/kg
same,half-life,[13],6.3 h
same,clearance,[14],5.4 mL/min/kg
same,inhibition in vivo at 10 mg/kg,Rattus norvegicus [15],87.9%
same,Cmax,[16],2530 ng/mL
same,AUC,[17],13100 ng·h/mL
same,bioavailability,[18],108%
same,Cmax,[19],2730 ng/mL
same,AUC,[20],14300 ng·h/mL
same,clearance,[21],12.7 mL/min/kg
same,half-life,[22],1.5 h
same,AUC,[23],3270 ng·h/mL
same,bioavailability,[24],82.4%
same,IC50,[25],5 nM
O=c1c2c(Cl)ccn2nc([C@@H]2CCN2c2ncnc3[nH]cnc23)n1-c1ccccc1,inhibition at 1 µM,PI3K p110 beta/p85 alpha [1],18.5%
same,"remaining at 0.5 h, 1 µM",[2],78.5%
same,"remaining at 0.5 h, 1 µM",[3],95.4%
same,inhibition at 1 µM,[26],-1.5%
O=c1c2c(Cl)ccn2nc([C@@H]2C[C@H](F)CN2c2ncnc3[nH]cnc23)n1-c1ccccc1,IC50,[4],20 nM
same,IC50,[27],1 nM
same,"remaining at 0.5 h, 1 µM",[2],43.8%
O=c1c2c(F)ccn2nc([C@@H]2CCCN2c2ncnc3[nH]cnc23)n1-c1ccccc1,inhibition at 1 µM,PI3K p110 beta/p85 alpha [1],52.9%
same,"remaining at 0.5 h, 1 µM",[2],51.8%
O=c1c2c(Cl)ccn2nc([C@@H]2CCCN2c2ncnc3[nH]cnc23)n1-c1cccc(F)c1,inhibition at 1 µM,PI3K p110 beta/p85 alpha [1],54.8%
same,IC50,[4],8 nM
same,"remaining at 0.5 h, 1 µM",[2],34.6%
same,"remaining at 0.5 h, 1 µM",[3],64.3%
Nc1ncc(Cl)c(N2CC[C@H]2c2nn3ccc(Cl)c3c(=O)n2-c2ccccc2)n1,inhibition at 1 µM,PI3K p110 beta/p85 alpha [1],22.9%
N#Cc1c[nH]c2ncnc(N3CCC[C@H]3c3nn4ccc(Cl)c4c(=O)n3-c3ccccc3)c12,"remaining at 0.5 h, 1 µM",[2],38.7%
N#Cc1cnc(N)nc1N1CC[C@H]1c1nn2ccc(Cl)c2c(=O)n1-c1ccccc1,inhibition at 1 µM,PI3K p110 beta/p85 alpha [1],37%
same,IC50,[4],241 nM
same,IC50,[27],16 nM
same,"remaining at 0.5 h, 1 µM",[2],77.5%
same,"remaining at 0.5 h, 1 µM",[3],71.2%
same,inhibition at 1 µM,[26],< 50%
